In article PMC11676896, “Protective Action of Cannabidiol on Tiamulin Toxicity in Humans—In Vitro Study” (International Journal of Molecular Sciences, 2024):
“And” between values parts separate entries of the source, which are not always exact repeats. Equal entries are not always repeated. Structures can show the parent of a compound that is named as a salt. Where two headings read alike, the source gives them in different places.

How the values were obtained:
HepG2 cells [1] = assay: LDH leakage assay (cell membrane integrity); assay type: cell-based, human; conditions: HepG2, 72 h
Protocol: (§1) The cytotoxic potential of the veterinary drug and its mixtures with cannabidiol at two non-toxic concentrations: 1.56 and 3.15 µg/mL, on the human SH-SY5Y, HepG2 and HEK 293 cell lines was assessed by decreased viability of the cells within five biochemical endpoints: mitochondrial activity and lysosomal activity (MTT assays, reducing the tetrazolium dye MTT 3-(4,5-dimethylthiazol-2-yl)-2,5-diphenyltetrazolium bromide and neutral red uptake (NRU) assays), total protein content (TPC assay), cellular membrane integrity (leakage lactate dehydrogenase (LDH) assay) and DNA synthesis (the bromodeoxyuridine/5-bromo-2′-deoxyuridine incorporation into the DNA cells (BrdU) assay) after 72 h exposition. Data obtained from the measurement of the optical density in these assays were transformed to percentages in relation to the negative control group (0.1% DMSO in medium), considered to be 100% for the MTT, NRU, TPC and BrdU assays and 0% for the LDH assay. 1% Trition-X 100 solution in medium was used as the positive controls, (Figure 3).
(§2) The human neuroblastoma (SH-SY5H), hepatoma (HepG2) and kidney cells (HEK 293) cells were purchased from the American Type Culture Collection: ATCCCRL-2266,ATCC HB-8065 and ATCC CRL-1573, respectively. These cells were cultured in Minimum Essential Medium Eagle (MEME) (ATCC). The media were supplemented with 10% FBS, 1% L-glutamine (and 1% antibiotic solution (P4333 Sigma). The cells were maintained in 75 cm^2 cell culture flasks (NUNC) in a humidified incubator at 37 °C in an atmosphere of 5% CO2. The medium was refreshed every two or three days, and the cells were subcultured by 0.25% trypsin–0.02% EDTA after reaching 70–80% confluence. Single cell suspensions were prepared and adjusted to a density of 2 × 10^5 cell/mL^−1 (SH-SY5H), 1 × 10^5 cell/mL^−1 (HepG2) and 1 × 10^5 cell/mL^−1 (HEK-293). The cell suspension was transferred to 96-well plates (100 µL/well) or Lab-Tek chamber slides (8 wells) (Nunc) for staining and incubated for 24 h before the exposure to the studied compounds. Stock solutions of tiamulin fumarate and cannabidiol were prepared in DMSO and diluted with culture medium to obtain a concentration range from 1.56 to 200 µg/mL and 1.56 or 3.156 µg/mL, respectively. The selection of tiamulin concentrations was based on data from the literature and pilot studies. The final concentration of DMSO was 0.1% in the medium. The same final concentrations of the solvent and the 1% Trition-X 100 solution were used as the negative and positive controls, respectively. A total of 500 µM hydrogen peroxide (H2O2) in was used as the positive control in the DCFH assay. […] As a negative control, cultured cells were grown in the absence of studied compounds. Each concentration was tested in six replicates in three independent experiments. Cytotoxicity was assessed after 72 h of exposure of the cells to the compounds. The medium was not changed during the incubation time.
(§3) The integrity of the plasma membrane was assessed through the test of lactate dehydrogenase (LDH) release, which was monitored using the commercially available Cytotoxicity Detection Kit (LDH) (Roche Diagnostics, Warsaw, Poland). The medium (100 µL/well) without cells was transferred into the corresponding wells of an optically clear 96-well flat bottom microplate, and 100 µL reaction mixture was added to each well. Then, the plates were incubated for 30 min at room temperature in darkness. After that time, 50 µL/well of 1 M HCl was added to stop the reaction. The absorbance was measured at 492 nm in a Synergy 2 Multi-Mode Microplate Reader (BiTek® Instruments Inc., Winooski, VT, USA) using a blank as a reference.
(§4) This study was performed in three independent experiments. The obtained results are presented as mean values ± SD (standard deviation). […]

SH-SY5Y cells = assay: LDH leakage assay (cell membrane integrity); assay type: cell-based, human; conditions: 72 h
Protocol: as §1, §2, §3, §4

HEK 293 cells = assay: LDH leakage assay (cell membrane integrity); assay type: cell-based, human
Protocol: as §1, §2, §3, §4

CYP3A4 = tested on: CYP3A4; design: method as in PMID 15013817; conditions: cited from earlier work
HepG2 and HEK-293 cells = tested on: HepG2 and HEK-293 cells; design: method as in PMID 39241564, PMID 37709940; conditions: 10 h of exposure, cited from earlier work
MDA-MB-231 = tested on: MDA-MB-231; design: method as in PMID 28399915; conditions: MDA-MB-231, dose 6.25–100 µg/mL, treatment period 12–48 h; cited from earlier work
HepG2 cells [2] = assay: NRU assay (lysosomal activity); assay type: cell-based; conditions: Homo sapiens, HepG2, 72 h, read-out: inhibited concentration (IC50), NRU
Protocol: as §1, with “Data obtained from the measurement of the optical density in these assays were transformed to percentages in relation to the negative control group (0.1% DMSO in medium), considered to be 100% for the MTT, NRU, TPC and BrdU assays and 0% for the LDH assay. 1% Trition-X 100 solution in medium was used as the positive controls, (Figure 3).” left out
The human neuroblastoma (SH-SY5H), hepatoma (HepG2) and kidney cells (HEK 293) cells were purchased from the American Type Culture Collection: ATCCCRL-2266,ATCC HB-8065 and ATCC CRL-1573, respectively. […] Cytotoxicity was assessed after 72 h of exposure of the cells to the compounds. […]
This method is based on staining living cells with neutral red, which readily diffuses through the plasma membrane and accumulates in lysosomes. […] After 10 min of shaking, the absorbance of the dissolved NR was measured using a Synergy 2 Multi-Mode Microplate Reader (BioTek® Instruments Inc., Winooski, VT, USA) at 540 nm using a blank as a reference. […]

[3] = tested on: SH-SY5Y, HepG2 and HEK-293 cells; assay: Cellular morphology, May-Grünwald-Giemsa staining; assay type: cell-based, human; conditions: May-Grunwald staining
Protocol: This method was used to illustrate the changes that occurred in cell morphology under the influence of the tested compounds. The staining was performed on 24-well plates. The cells at a density of 1 × 10^5 cells/mL were used. After 24 h of incubation with the examined drugs or without them (control), the culture media was removed and the cells were stained with 1 mL of May–Grünwald dye for 3 min at room temperature. Then, 1 mL of deionized water was added to each plate. After 3 min of incubation at room temperature, the liquid was removed. All the plates were rinsed with deionized water, and then the cells were stained with Giemsa dye (dilution 1:20) for 30 min at room temperature. After this time, the dye was removed and the wells were rinsed with 1 mL of deionized water and then allowed to dry. The images were taken using a light microscope (Zeiss, Obercochem, Germany).

[4] = Homo sapiens, read-out: inhibited concentration (IC50), LDH

With C=C[C@]1(C)C[C@@H](OC(=O)CSCCN(CC)CC)[C@]2(C)[C@H](C)CC[C@]3(CCC(=O)[C@H]32)[C@@H](C)[C@@H]1O [T, tiamulin fumarate] the “tiamulin concentration that caused disintegration of the cell membrane” value (HepG2 cells [1]) was 25 µg/mL, the IC50 (HepG2 cells [1]; [4]) was 39.5 ± 1.7 µg/mL and the “tiamulin concentration that caused disintegration of the cell membrane” value (SH-SY5Y cells) was 25 µg/mL. The IC50 (SH-SY5Y cells; [4]) was > 200 µg/mL, the “tiamulin concentration that caused disintegration of the cell membrane” value (HEK 293 cells; HEK-293, 72 h) was 25 µg/mL and the IC50 (HEK 293 cells; Homo sapiens, HEK293, 72 h, read-out: inhibited concentration (IC50), LDH) was 76.9 ± 2.3 µg/mL. For the same compound, the “effect on CYP3A4” value (CYP3A4) was “strongly blocks CYP3A4”, the “concentrations with cytotoxic effects” value (HepG2 and HEK-293 cells; converted from µM) was 49.4 µg/mL and 98.8 µg/mL and the “concentrations with cytotoxic effects” value (HepG2 and HEK-293 cells) was 100 µM and 200 µM. For the same compound, the cell viability (MDA-MB-231) was “cell viability decreased with increasing dose”, the IC50 (HepG2 cells [2]) was 34.7 ± 1 µg/mL and the “changes in cell morphology” value [3] was “detachment from the adhesion surface”.
